Assay results: patent publication US20260374773A1, “MULTI-CYCLIC IRAK AND FLT3 INHIBITING COMPOUNDS AND USES THEREOF” (CHILDREN'S HOSPITAL MEDICAL CENTER, priority 2022, published 2026)

Molecular target: T1, FLT3 R834Q (Homo sapiens, UniProt P36888, R834Q)
T1 sequence (P36888 27-993 R834Q): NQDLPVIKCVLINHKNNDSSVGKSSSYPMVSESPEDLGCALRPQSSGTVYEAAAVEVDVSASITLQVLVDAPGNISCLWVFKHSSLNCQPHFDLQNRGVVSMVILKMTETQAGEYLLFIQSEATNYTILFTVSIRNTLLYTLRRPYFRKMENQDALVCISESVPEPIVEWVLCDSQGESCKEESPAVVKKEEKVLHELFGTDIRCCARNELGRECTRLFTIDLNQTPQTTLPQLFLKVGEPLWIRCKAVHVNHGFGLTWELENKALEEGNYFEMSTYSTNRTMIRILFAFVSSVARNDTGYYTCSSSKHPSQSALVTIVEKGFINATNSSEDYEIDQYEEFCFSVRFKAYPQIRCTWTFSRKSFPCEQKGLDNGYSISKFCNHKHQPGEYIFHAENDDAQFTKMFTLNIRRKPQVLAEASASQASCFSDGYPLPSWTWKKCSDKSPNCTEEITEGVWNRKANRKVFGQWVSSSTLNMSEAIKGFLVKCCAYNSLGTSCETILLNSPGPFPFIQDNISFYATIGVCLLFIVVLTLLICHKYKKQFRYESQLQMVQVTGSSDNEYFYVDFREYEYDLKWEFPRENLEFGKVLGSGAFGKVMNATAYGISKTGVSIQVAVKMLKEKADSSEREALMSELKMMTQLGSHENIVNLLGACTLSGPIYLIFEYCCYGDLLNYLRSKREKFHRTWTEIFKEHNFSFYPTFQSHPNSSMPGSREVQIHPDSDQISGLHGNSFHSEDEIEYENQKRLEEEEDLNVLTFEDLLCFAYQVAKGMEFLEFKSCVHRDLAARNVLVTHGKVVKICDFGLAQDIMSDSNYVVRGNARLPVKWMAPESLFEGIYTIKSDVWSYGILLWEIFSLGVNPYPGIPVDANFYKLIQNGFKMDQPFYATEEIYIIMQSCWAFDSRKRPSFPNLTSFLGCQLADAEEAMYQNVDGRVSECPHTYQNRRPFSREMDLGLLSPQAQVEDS
Assay: DiscoverX KINOMEscan active site-directed competition binding, FLT3 R834Q
Conditions: Table 13; no ATP
Description: (§1) Kinase binding data were obtained for various exemplary compounds prepared according to Examples 1-8 using the DiscoverX KINOMEscan® active site-directed competition binding site-directed assay protocol described below. […] As a result, the data report thermodynamic interaction affinities (Kd values), rather than IC50 values that are dependent on ATP concentrations. The assay uses a DNA-tagged version of the protein kinase, and an immobilized ligand bound to a solid support. Compounds that directly or indirectly prevent kinase binding to the immobilized ligand reduce the amount of kinase captured on the solid support, which is detected using an ultra-sensitive qPCR method. Affinity constants reported from the assay have been reported to be independent of the immobilized ligand used that is coupled to the solid support (See supplemental information in Fabian, M. A. et. al., (2005) Nat. Biotechnol. 23, 329-336; Wodicka, L. M. et. al., (2010) Chem. Biol. 17, 1241-1249.)
Kinase-tagged T7 phage strains were prepared in an E. coli host derived from the BL21 strain. E. coli were grown to log-phase and infected with T7 phage and incubated with shaking at 32 °C until lysis. The lysates were centrifuged and filtered to remove cell debris. The remaining kinases were produced in HEK-293 cells and subsequently tagged with DNA for qPCR detection. Streptavidin-coated magnetic beads were treated with biotinylated small molecule ligands for 30 minutes at room temperature to generate affinity resins for kinase assays. The liganded beads were blocked with excess biotin and washed with blocking buffer (SeaBlock (Pierce), 1% BSA, 0.05% Tween 20, 1 mM DTT) to remove unbound ligand and to reduce non-specific binding. […] Test compounds were prepared as 111x stocks in 100% DMSO. Kds were determined using an 11-point 3-fold compound dilution series with three DMSO control points. All compounds for Kd measurements are distributed by acoustic transfer (non-contact dispensing) in 100% DMSO. The compounds were then diluted directly into the assays such that the final concentration of DMSO was 0.9%. All reactions were performed in polypropylene 384-well plates. Each was a final volume of 0.02 mL. The assay plates were incubated at room temperature with shaking for 1 hour and the affinity beads were washed with wash buffer (1×PBS, 0.05% Tween 20). The beads were then re-suspended in elution buffer (1×PBS, 0.05% Tween 20, 0.5 μM nonbiotinylated affinity ligand) and incubated at room temperature with shaking for 30 minutes. The kinase concentration in the eluates was measured by qPCR. Binding constants (Kds) were calculated with a standard dose-response curve using the Hill equation. The Hill Slope was set to −1. Curves were fitted using a non-linear least square fit with the Levenberg-Marquardt algorithm.
as §1, with “9-12” for “1-8”
Kinase-tagged T7 phage strains were prepared in an E. coli host derived from the BL21 strain. […]

Row | Kd | Compound
1 | < 0.17 nM | COc1cn2ncc(-c3nc(N[C@H]4CNCC[C@@H]4F)c(C#N)cc3F)c2nc1C1CC1 [Compound 7, 6-(5-cyclopropyl-6-methoxypyrazolo[1,5-a]pyrimidin-3-yl)-5-fluoro-2-(((3S,4S)-4-fluoropiperidin-3-yl)amino)nicotinonitrile]
2 | 2.2 nM | COc1cn2ncc(-c3nc(N[C@H]4CNCC[C@@H]4F)c(C#N)cc3F)c2nc1C(C)(C)O [Compound 10, 5-fluoro-2-(((3S,4S)-4-fluoropiperidin-3-yl)amino)-6-(5-(2-hydroxypropan-2-yl)-6-methoxypyrazolo[1,5-a]pyrimidin-3-yl)nicotinonitrile]
3 | 3.3 nM | COc1cn2ncc(-c3nc(N[C@H]4CNCC[C@@H]4F)c(F)cc3F)c2nc1C(C)(C)O [Compound 13, 2-(3-(3,5-difluoro-6-(((3S,4S)-4-fluoropiperidin-3-yl)amino)pyridin-2-yl)-6-methoxypyrazolo[1,5-a]pyrimidin-5-yl)propan-2-ol]

Same assay, conditions: Table 19; no ATP

Row | Kd | Compound
4 | 3.8 nM | COc1cn2ncc(-c3nc(N[C@H]4CNCC[C@@H]4F)ncc3F)c2nc1C(C)(C)O [Compound 6a, 2-(3-(5-fluoro-2-(((3S,4S)-4-fluoropiperidin-3-yl)amino)pyrimidin-4-yl)-6-methoxypyrazolo[1,5-a]pyrimidin-5-yl)propan-2-ol]
5 | 0.43 nM | COc1cn2ncc(-c3ccnc(N[C@H]4CNCC[C@@H]4F)n3)c2nc1C1CC1 [Compound 7a, 4-(5-cyclopropyl-6-methoxypyrazolo[1,5-a]pyrimidin-3-yl)-N-((3S,4S)-4-fluoropiperidin-3-yl)pyrimidin-2-amine]
6 | 0.35 nM | COc1cn2ncc(-c3cncc(N[C@H]4CNCC[C@@H]4F)n3)c2nc1C1CC1 [Compound 12a, 6-(5-cyclopropyl-6-methoxypyrazolo[1,5-a]pyrimidin-3-yl)-N-((3S,4S)-4-fluoropiperidin-3-yl)pyrazin-2-amine]
7 | < 0.17 nM | COc1cn2ncc(-c3nc(N[C@@H]4CCCNC4)ncc3F)c2nc1C1CC1 [Compound 14a, (R)-4-(5-cyclopropyl-6-methoxypyrazolo[1,5-a]pyrimidin-3-yl)-5-fluoro-N-(piperidin-3-yl)pyrimidin-2-amine]
8 | < 0.17 nM | COc1cn2ncc(-c3nc(N[C@H]4CNCC[C@@H]4F)ncc3F)c2nc1C1CC1 [Compound 15a, 4-(5-cyclopropyl-6-methoxypyrazolo[1,5-a]pyrimidin-3-yl)-5-fluoro-N-((3S,4S)-4-fluoropiperidin-3-yl)pyrimidin-2-amine]
